Experimental data taken from patent US20170267750A1, “Method of Treating Ovarian and Renal Cancer Using Antibodies Against T Cell Immunoglobulin Domain and Mucin Domain 1 (TIM-1) Antigen” (Celldex Therapeutics, Inc., priority 2005, published 2017).
Structures can show the parent of a compound that is named as a salt.

Key:
ACHN cells = experiment: Antibody mediated toxin killing clonogenic assay (saporin conjugated secondary antibody), ACHN; type: cell-based, human; details: EGFR mAb at 100 ng/mL with saporin secondary
Experimental: (§1) A clonogenic assay as described in the art was used to determine whether primary antibodies can induce cancer cell death when used in combination with a saporin toxin conjugated secondary antibody reagent. Kohls and Lappi, Biotechniques, 28(1):162-5 (2000).
(§2) ACHN and BT549 cells were plated onto flat bottom tissue culture plates at a density of 3000 cells per well. On day 2 or when cells reached ˜25% confluency, 100 ng/well secondary mAb-toxin (goat anti-human IgG-saporin; Advanced Targeting Systems; HUM-ZAP; cat. no. IT-22) was added. A positive control anti-EGFR antibody, mAb 2.7.2, mAb 2.59.2, or an isotype control mAb was then added to each well at the desired concentration (typically 1 to 500 ng/mL). On day 5, the cells were trypsinized, transferred to a 150 mm tissue culture dish, and incubated at 37° C. Plates were examined daily. On days 10-12, all plates were Giemsa stained and colonies on the plates were counted. Plating efficiency was determined by comparing the number of cells prior to transfer to 150 mm plates to the number of colonies that eventually formed.
(§3) The percent viability in antigen positive ACHN and antigen negative BT549 cell lines are presented in FIG. 4 and FIG. 5 respectively.

BT549 cells = experiment: Antibody mediated toxin killing clonogenic assay (saporin conjugated secondary antibody), BT549; type: cell-based, human; details: EGFR mAb at 100 ng/mL with saporin secondary
Experimental: as §1, §2, §3

[1] = test system: IGROV1 ovarian carcinoma xenografts; experiment: Human ovarian carcinoma xenograft model (IGROV1) in athymic mice; type: in vivo, athymic mice (CD-1 nu/nu females)
Experimental: An in vivo study was performed to assess the potency and therapeutic efficacy of the antibody-drug conjugate, CR014-vcMMAE, against an established human IGROV-1 ovarian xenograft in athymic mice.
Test Animals: Five- to 6-week old athymic mice (CD-1 nu/nu females), used for human tumor xenografts, were obtained from Charles Rivers Laboratories (Wilmington, Del.). Animals were housed in specific pathogen-free conditions, according to the guidelines of the Association for Assessment and Accreditation of Laboratory Animal Care International (AAALAC International). Test animals were provided pelleted food and water ad libitum and kept in a room with conditioned ventilation (HVAC), temperature (22°±2° C.), relative humidity (55%±15%), and photoperiod (12 hr). All studies were carried out with approved institutional animal care and use protocols. Contract Research Organizations. Experiments in vivo were conducted at Southern Research Institute (Birmingham, Ala.).
Human Ovarian Carcinoma Xenograft Model. The tumor inhibitory activity of the CR014-MMAE immunoconjugate was measured in an anti-tumor xenograft model using athymic mice, according to published methods (Geran R I, Greenberg N H, Macdonald M M, Schumacher A M and Abbott B J (1972) Protocols for screening chemical agents and natural products against animal tumors and other biological systems. Cancer Chemother Rep 3:1-104).
Briefly, test animals were implanted subcutaneously by trocar with small fragments of the IGROV1 carcinoma (30-60 mg) excised from athymic mouse tumor donors. […]
The IGROV1 ovarian carcinoma was derived from a person in 1985, and was obtained from the American Type Culture Collection. The effects of treatment were monitored by repetitive tumor measurements across 2 diameters with Vernier calipers; tumor size (in mg) was calculated using a standard formula, (W^2×L)/2, assuming a specific gravity of 1.0. Tumor size and body weights were assessed twice weekly. […]

O=c1[nH]cc(F)c(=O)[nH]1 [5-FU, 5 Fluorouracil, reference compound]
killing in clonogenic assay (controls) (ACHN cells): almost complete killing | killing in clonogenic assay (controls) (BT549 cells): almost complete killing

CC(=O)O[C@H]1C(=O)[C@@]2(C)[C@H]([C@H](OC(=O)c3ccccc3)[C@]3(O)C[C@H](OC(=O)[C@H](O)[C@@H](NC(=O)c4ccccc4)c4ccccc4)C(C)=C1C3(C)C)[C@]1(OC(C)=O)CO[C@@H]1C[C@@H]2O [Paclitaxel, paclitaxel]
re-growth of tumors during the observation period ([1]; 101 days after the commencement of treatment): not observed | anti-tumor effect ([1]; paclitaxel i.v., 24 mg/kg, q2d×4 (MTD)): significant tumor growth inhibition

CC[C@]1(O)C[C@@H]2CN(CCc3c([nH]c4ccccc34)[C@@](C(=O)OC)(c3cc4c(cc3OC)N(C)[C@H]3[C@@](O)(C(=O)OC)[C@H](OC(C)=O)[C@]5(CC)C=CCN6CC[C@]43[C@@H]65)C2)C1 [Vinblastine, vinblastine sulfate]
anti-tumor effect ([1]; vinblastine sulfate i.v., 1.7 mg/kg, q4d×4 (MTD)): very slight, but not significant, anti-tumor effect
